These are literature values, as cited in patent US20090233811A1, “Manufacture of Array Chips” (Randox Laboratories Ltd., priority 2005, published 2009).

Each structure is given as a SMILES string.

For this data set the following is noted: data from Sigma-Aldrich Handbook of Stains, Dyes and Indicators.
On to `CC(=O)Nc1cc(S(=O)(=O)[O-])cc2cc(S(=O)(=O)[O-])c(/N=N/c3ccccc3)c(O)c12.[Na+].[Na+]` [Acid Red 1], for which the Solubility in water is 60 mg/mL. Regarding `O=S(=O)([O-])c1cc(S(=O)(=O)[O-])c2c(N=Nc3ccc(N=Nc4ccccc4)cc3)c(O)ccc2c1.[Na+].[Na+]` [Brilliant Crocein MOO], the Solubility in water was 50 mg/mL.

Regarding `O=S(=O)([O-])c1cc(/N=N/c2ccc(O)cc2)ccc1C=Cc1ccc(/N=N/c2ccc(O)cc2)cc1S(=O)(=O)[O-].[Na+].[Na+]` [Brilliant Yellow], the Solubility in water is 1 mg/mL. As to `O=S(=O)([O-])c1cc(O)c2c(O)c(N=Nc3ccccc3)c(S(=O)(=O)[O-])cc2c1.[Na+].[Na+]` [Chromotrope 2R], the Solubility in water is 200 mg/mL. For `O=S(=O)([O-])c1ccc2c(/N=N/c3ccccc3)c(O)ccc2c1.[Na+]` [Crocein Orange], the Solubility in water was 40 mg/mL. Take `O=C([O-])C1=NN(c2ccc(S(=O)(=O)[O-])cc2)C(=O)C1N=Nc1ccc(S(=O)(=O)[O-])cc1.[Na+].[Na+].[Na+]` (stereo not drawn) [Tartrazine]: the Solubility in water is 300 mg/mL.
